Assay results: patent publication EP4667467A1, “PROTAC DEGRADERS OF MLLT1 AND/OR MLLT3” (Dark Blue Therapeutics Ltd, priority 2024, dated 2025)

Molecular target: T1, MLLT1 (Homo sapiens, UniProt Q03111)
T1 construct: endogenous in cells; host or cells: MV4-11 (ATCC CRL-9591)
T1 sequence (Q03111 1-559): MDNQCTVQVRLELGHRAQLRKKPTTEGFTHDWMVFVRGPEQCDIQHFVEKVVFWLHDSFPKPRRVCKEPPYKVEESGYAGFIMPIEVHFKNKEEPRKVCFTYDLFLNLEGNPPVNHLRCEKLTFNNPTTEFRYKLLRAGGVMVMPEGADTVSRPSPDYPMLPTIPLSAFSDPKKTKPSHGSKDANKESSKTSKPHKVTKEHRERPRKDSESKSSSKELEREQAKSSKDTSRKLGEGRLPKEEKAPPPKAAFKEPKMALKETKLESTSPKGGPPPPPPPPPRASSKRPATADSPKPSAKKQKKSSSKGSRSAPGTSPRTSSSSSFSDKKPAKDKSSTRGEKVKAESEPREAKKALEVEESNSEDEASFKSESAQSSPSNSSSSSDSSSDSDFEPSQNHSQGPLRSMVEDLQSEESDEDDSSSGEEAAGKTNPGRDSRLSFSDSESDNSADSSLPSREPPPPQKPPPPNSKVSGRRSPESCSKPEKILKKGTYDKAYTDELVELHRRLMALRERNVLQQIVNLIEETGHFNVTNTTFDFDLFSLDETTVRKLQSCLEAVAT
Assay: MLLT1 Degradation Assay (JESS automated chemiluminescent detection, MV4-11 cells)
Type: cell-based
Details: 24h, with respect to DMSO control; for MLLT1 % Degradation @ 0.01 µM: 0.01 µM (10 nM) test compound; for MLLT1 % Degradation @ 0.1 µM: 0.1 µM (100 nM) test compound; for MLLT 1 % Degradation @ 1 µM: 1 µM (1000 nM) test compound
Procedure, shortened: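 MV4-11 cells were treated for 24 h at 37 °C, 5% CO2 with compound at 1000, 100 and 10 nM (0.1% DMSO). MLLT1 was quantified by automated capillary chemiluminescent immunodetection (JESS). Band peak areas were expressed as % degradation relative to DMSO control.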

MLLT1 % Degradation @ 0.01 µM	MLLT1 % Degradation @ 0.1 µM	SMILES	MLLT 1 % Degradation @ 1 µM
A (Category A: A ≥ 75% degradation)	A (Category A: A ≥ 75% degradation)	CN1CCC[C@@H]1c1cc2cnc(NC(=O)c3ccc(OCC#Cc4cccc5c4CN(C4CCC(=O)NC4=O)C5=O)cc3F)cc2[nH]1 (stereo partly drawn) [Example 57, 4-((3-(2-(2,6-dioxopiperidin-3-yl)-1-oxoisoindolin-4-yl)prop-2-yn-1-yl)oxy)-2-fluoro-N-(2-((R)-1-methylpyrrolidin-2-yl)-1H-pyrrolo[3,2-c]pyridin-6-yl)benzamide]	A (Category A: A ≥ 75% degradation)
A (Category A: A ≥ 75% degradation)	A (Category A: A ≥ 75% degradation)	CN1CCC[C@@H]1c1cc2cnc(NC(=O)c3ccc(-c4cnn(CCCCC#Cc5cccc6c5CN(C5CCC(=O)NC5=O)C6=O)c4)cc3)cc2[nH]1 (stereo partly drawn) [Example 59, 4-(1-(6-(2-(2,6-dioxopiperidin-3-yl)-1-oxoisoindolin-4-yl)hex-5-yn-1-yl)-1H-pyrazol-4-yl)-N-(2-((R)-1-methylpyrrolidin-2-yl)-1H-pyrrolo[3,2-c]pyridin-6-yl)benzamide]	B (Category B: 50% ≤ B < 75% degradation)
A (Category A: A ≥ 75% degradation)	A (Category A: A ≥ 75% degradation)	CN1CCC[C@@H]1c1cc2cnc(NC(=O)c3ccc(-c4cnn(CCCC5CCN(c6cccc(C(=O)N[C@H]7CCC(=O)NC7=O)n6)CC5)c4)cc3)cc2[nH]1 [Example 60, N-((S)-2,6-dioxopiperidin-3-yl)-6-(4-(3-(4-(4-((2-((R)-1-methylpyrrolidin-2-yl)-1H-pyrrolo[3,2-c]pyridin-6-yl)carbamoyl)phenyl)-1H-pyrazol-1-yl)propyl)piperidin-1-yl)picolinamide]	A (Category A: A ≥ 75% degradation)
A (Category A: A ≥ 75% degradation)	A (Category A: A ≥ 75% degradation)	CN1CCC[C@@H]1c1cc2cnc(NC(=O)c3ccc(-c4cnn(CCOC5CCN(c6cccc(C(=O)N[C@H]7CCC(=O)NC7=O)n6)CC5)c4)cc3)cc2[nH]1 [Example 61, N-((S)-2,6-dioxopiperidin-3-yl)-6-(4-(2-(4-(4-((2-((R)-1-methylpyrrolidin-2-yl)-1H-pyrrolo[3,2-c]pyridin-6-yl)carbamoyl)phenyl)-1H-pyrazol-1-yl)ethoxy)piperidin-1-yl)picolinamide]	B (Category B: 50% ≤ B < 75% degradation)
D (Category D: D < 25% degradation)	D (Category D: D < 25% degradation)	CN1CCC[C@@H]1c1cc2cnc(NC(=O)c3ccc(CCCC#Cc4cccc(N5CCC(=O)NC5=O)n4)cc3)cc2[nH]1 [Example 63, (R)-4-(5-(6-(2,4-dioxotetrahydropyrimidin-1(2H)-yl)pyridin-2-yl)pent-4-yn-1-yl)-N-(2-(1-methylpyrrolidin-2-yl)-1H-pyrrolo[3,2-c]pyridin-6-yl)benzamide]	C (Category C: 25% ≤ C < 50% degradation)
A (Category A: A ≥ 75% degradation)	A (Category A: A ≥ 75% degradation)	CN1CCC[C@@H]1c1cc2cnc(NC(=O)c3ccc(OCC#Cc4cccc5c4n(C)c(=O)n5C4CCC(=O)NC4=O)cc3)cc2[nH]1 (stereo partly drawn) [Example 66, 4-((3-(1-(2,6-dioxopiperidin-3-yl)-3-methyl-2-oxo-2,3-dihydro-1H-benzo[d]imidazol-4-yl)prop-2-yn-1-yl)oxy)-N-(2-((R)-1-methylpyrrolidin-2-yl)-1H-pyrrolo[3,2-c]pyridin-6-yl)benzamide]	A (Category A: A ≥ 75% degradation)
A (Category A: A ≥ 75% degradation)	A (Category A: A ≥ 75% degradation)	CN1CCC[C@@H]1c1cc2cnc(NC(=O)c3ccc(N4CCC(c5ccc(-c6cccc7c6CN(C6CCC(=O)NC6=O)C7=O)cc5)CC4)nc3)cc2[nH]1 (stereo partly drawn) [Example 67, 6-(4-(4-(2-(2,6-dioxopiperidin-3-yl)-1-oxoisoindolin-4-yl)phenyl)piperidin-1-yl)-N-(2-((R)-1-methylpyrrolidin-2-yl)-1H-pyrrolo[3,2-c]pyridin-6-yl)nicotinamide]	A (Category A: A ≥ 75% degradation)
A (Category A: A ≥ 75% degradation)	A (Category A: A ≥ 75% degradation)	CN1CCC[C@@H]1c1[nH]c2cc(NC(=O)c3ccc(CCCCC#Cc4cccc5c4CN(C4CCC(=O)NC4=O)C5=O)nc3)ncc2c1Cl (stereo partly drawn) [Example 71, N-(3-chloro-2-((R)-1-methylpyrrolidin-2-yl)-1H-pyrrolo[3,2-c]pyridin-6-yl)-6-(6-(2-(2,6-dioxopiperidin-3-yl)-1-oxoisoindolin-4-yl)hex-5-yn-1-yl) nicotinamide]	B (Category B: 50% ≤ B < 75% degradation)
A (Category A: A ≥ 75% degradation)	A (Category A: A ≥ 75% degradation)	CN1CCC[C@@H]1c1[nH]c2cc(NC(=O)c3ccc(N4CCN(CC#Cc5cccc6c5CN(C5CCC(=O)NC5=O)C6=O)CC4)nc3)ncc2c1Cl (stereo partly drawn) [Example 72, N-(3-chloro-2-((R)-1-methylpyrrolidin-2-yl)-1H-pyrrolo[3,2-c]pyridin-6-yl)-6-(4-(3-(2-(2,6-dioxopiperidin-3-yl)-1-oxoisoindolin-4-yl)prop-2-yn-1-yl)piperazin-1-yl)nicotinamide]	C (Category C: 25% ≤ C < 50% degradation)

SMILES	MLLT1 % Degradation @ 0.01 µM	MLLT1 % Degradation @ 0.1 µM	MLLT 1 % Degradation @ 1 µM
CN1CCC[C@@H]1c1cc2cnc(NC(=O)c3cccc(OCC#Cc4cccc5c4CN(C4CCC(=O)NC4=O)C5=O)c3)cc2[nH]1 (stereo partly drawn) [Example 58, 3-((3-(2-(2,6-dioxopiperidin-3-yl)-1-oxoisoindolin-4-yl)prop-2-yn-1-yl)oxy)-N-(2-((R)-1-methylpyrrolidin-2-yl)-1H-pyrrolo[3,2-c]pyridin-6-yl)benzamide]	B (Category B: 50% ≤ B < 75% degradation)	A (Category A: A ≥ 75% degradation)	C (Category C: 25% ≤ C < 50% degradation)
CN1CCC[C@@H]1c1cc2cnc(NC(=O)c3ccc(-c4cnn(CCCC#Cc5cccc(C(=O)N[C@H]6CCC(=O)NC6=O)n5)c4)cc3)cc2[nH]1 [Example 62, N-((S)-2,6-dioxopiperidin-3-yl)-6-(5-(4-(4-((2-((R)-1-methylpyrrolidin-2-yl)-1H-pyrrolo[3,2-c]pyridin-6-yl)carbamoyl)phenyl)-1H-pyrazol-1-yl)pent-1-yn-1-yl) picolinamide]	B (Category B: 50% ≤ B < 75% degradation)	A (Category A: A ≥ 75% degradation)	B (Category B: 50% ≤ B < 75% degradation)
CN1CCC[C@@H]1c1cc2cnc(NC(=O)c3ccc(N4CCC(N5CCN(c6cccc7c6C(=O)N(C6CCC(=O)NC6=O)C7=O)CC5)CC4)nc3)cc2[nH]1 (stereo partly drawn) [Example 64, 6-(4-(4-(2-(2,6-dioxopiperidin-3-yl)-1,3-dioxoisoindolin-4-yl)piperazin-1-yl)piperidin-1-yl)-N-(2-((R)-1-methylpyrrolidin-2-yl)-1H-pyrrolo[3,2-c]pyridin-6-yl)nicotinamide]	B (Category B: 50% ≤ B < 75% degradation)	B (Category B: 50% ≤ B < 75% degradation)	A (Category A: A ≥ 75% degradation)
CN1CCC[C@@H]1c1cc2cnc(NC(=O)c3cnc(N4CCC(C#Cc5cccc6c5CN(C5CCC(=O)NC5=O)C6=O)CC4)nc3)cc2[nH]1 (stereo partly drawn) [Example 65, 2-(4-((2-(2,6-dioxopiperidin-3-yl)-1-oxoisoindolin-4-yl)ethynyl)piperidin-1-yl)-N-(2-((R)-1-methylpyrrolidin-2-yl)-1H-pyrrolo[3,2-c]pyridin-6-yl)pyrimidine-5-carboxamide]	B (Category B: 50% ≤ B < 75% degradation)	B (Category B: 50% ≤ B < 75% degradation)	B (Category B: 50% ≤ B < 75% degradation)
CCN1CCC[C@@H]1c1cc2cnc(NC(=O)c3ccc(N4CCC(CC#Cc5cccc6c5CN(C5CCC(=O)NC5=O)C6=O)CC4)nc3)cc2[nH]1 (stereo partly drawn) [Example 73, 6-(4-(3-(2-(2,6-dioxopiperidin-3-yl)-1-oxoisoindolin-4-yl)prop-2-yn-1-yl)piperidin-1-yl)-N-(2-((R)-1-ethylpyrrolidin-2-yl)-1H-pyrrolo[3,2-c]pyridin-6-yl)nicotinamide]	B (Category B: 50% ≤ B < 75% degradation)	A (Category A: A ≥ 75% degradation)	B (Category B: 50% ≤ B < 75% degradation)
